The test system of one experiment is APTK organoids. Kind of experiment: APTK tumor organoids treated with UA (lysosomes, mitochondria, MHC-I by flow cytometry). The note with it: increasing concentrations of UA. The class given is cell-based, mouse. The method, then: APTK colorectal organoids which harbor mutations for Apc, Trp53 and Tgfbr2 as well as expression of oncogenic KraSG12D were established and maintained as previously described (Nicolas et al., 2022; Varga et al., 2020). APTK organoids were seeded in 6 wells suspension plates: 6 droplets of 50 l Matrigel (Corning) per well were used. To generate OVA-APTK, colon organoids were isolated from unchallenged OVA mice (The Jackson Laboratory) as previously described (Nicolas et al., 2022). Liposomes CRISPR/Cas9 technology-based transfection was used for targeted knockout of the following mutated colorectal cancer-related genes: Apc (gRNA: […])(SEQ ID NO:1), Trp53 gRNA: […]) (SEQ ID NO:2), and Tgfbr2 (gRNA: […]) (SEQ ID NO:3) as previously described (Schwank and Clevers, 2016). Cas9 plasmid (Addgene; #41815) was used along gRNA plasmids generated from addgene #41819 plasmid by cloning the gRNA of interest instead of GFP targeting gRNA. Firstly, Apc knockout (A) organoids were functionally selected by the withdrawal of R-spondin from the culture medium. Secondly, Apc Trp53 (AT) knockout organoids were selected for Trp53 loss with 5 μM of MDM2 inhibitor (Nutlin-3) (Biomole, cat no. 10004372). Thirdly, Apc Trp53 Tgfbr2 (APT) knockout organoids were selected with […] recombinant TGFβ (R&D Systems; 7666-MB). Finally, KrasG12D gain of function mutation was obtained by overexpressing the active murine version of Kras gene (cloned in house based on Addgene plasmid #111164, Map-S5) in APT organoids. Apc, Trp53, Tgfbr2 and KrasG12D (APTK) OVA organoids were selected by 2 μg/mL puromycin (Merck; 58-58-2) and withdrawal of EGF and noggin from the culture medium. In order to study the effect of UA on lysosome formation, mitochondria reduction as well as antigen presentation, organoids were treated with 25-50 μM UA for 24-48 h. Organoids were subsequently stained with a MHC-I antibody (AF6-88.5; 116516; BioLegend), Mitotracker Deep Red (250 nm; ThermoFisher) and Lysotracker Red DND-99 (75 nM; ThermoFisher).
Background: A flow cytometer gives signals particle by particle.

For another experiment, the system named is AOM-induced colon tumors. Kind of experiment: AOM-induced colorectal tumorigenesis, UA-containing diet. The class given is in vivo, mouse. The note with it: FVB mice. An excerpt:
Urolithin A containing diet (2.28 g/kg) or AIN− 93G control food (Brogaarden) were given ad libitum once introduced for experimental purpose at the indicated time. Animal experiments were approved by the Regierungsprasidium Darmstadt under animal application numbers F123/1009; F123/1062 and F123/2008.
Colorectal tumors were induced by 6 consecutive weekly injections of AOM on mice fed with food containing 2.28 g/kg Urolithin A (UA diet) or with control food. The diet was introduced one-week prior the first AOM injection and maintained until the end of the experiment at ˜20-24 weeks. The colons were collected for subsequent histological analysis as described below. For subcutaneous colorectal cancers, APTK organoids were mechanistically disrupted, incubated with Accutase to generate a single cell suspension and reconstituted in PBS 20% Matrigel (Corning) for subcutaneous transplantation. Tumor sizes were measured at the indicated time after transplantation and tumor volume quantified as ½(width2×length). Urolithin A or control food regiment were initiated either one week before tumor challenge or 11 days after tumor development. Therapeutic diets were maintained throughout the experiment unless indicated otherwise. […] CD8-depleting antibodies (InvivoMab anti-mouse CD8; Hoelzel; BE0061) or isotype controls (InvivoMab rat IgG2b isotyp; Hoelzel; BE0090) were applied every three days, starting at five days after tumor initiation. To study combination efficacy with immunotherapy, mice were injected i.p. with 100 μl nVivoMAb anti-mouse PD-1 (Hoelzel; BE0146) and InVivoMab mouse IgG2b isotype control (Hoelzel; BE0086) every 2 days, starting three days after tumor injection.
For histological analysis of colon tissue, colons were paraffin embedded using the “swiss roll” technique and serially sectioned at […]. […] AOM tumor lesion size and incidence were quantified using Aperio ImageScope software.

Setting [1] is: AOM weekly for six weeks, oral UA diet 2.28 g/kg vs control diet.

Molecules are shown by their SMILES.

On to `O=c1oc2cc(O)ccc2c2ccc(O)cc12` [UA, Urolithin A], for which, in the experiment on APTK organoids, the MitoTracker staining entry is on record as “loss of MitoTracker staining” and the “formation of lysosomes (lysotracker)” value was “dose-dependent formation of lysosomes”. In the experiment on APTK organoids (48 hours), the MHC-I expression result was “marked upregulation”. In addition, in the experiment on AOM-induced colon tumors (setting [1]), the tumor incidence entry is listed as “significant decrease” and the tumor size result is reported as “significant decrease”. In addition, in the experiment on AOM-induced colon tumors (AOM, oral UA diet 2.28 g/kg), the “infiltration of CD3+ T cells into the colonic mucosa” value was “increased infiltration”.

(Values after patent US20240139149A1, “THERAPEUTIC USES OF UROLITHIN DERIVATIVES” (Vandria SA, priority 2022, published 2024).)
